9 molecules from US8846741B2, “N-substituted aminobenzocycloheptene, aminotetraline, aminoindane and phenalkylamine derivatives, pharmaceutical compositions containing them, and their use in therapy” (AbbVie Deutschland GmbH & Co. KG, priority 2011, dated 2014) can be followed below.

As usually defined, the efflux ratio is a quotient of directional permeabilities that is used to spot active efflux.

Molecules are shown by their SMILES. pKi: −log10 of the molar value.

The target in data set [1] is human GlyT1c transporter (Homo sapiens (Human), UniProt P48067). Nature of the data set: Radioligand binding assay using recombinant CHO cell membranes expressing human GlyT1. To be noted: read-out: radioligand binding Kiapp. The procedure: 2. Radioligand Binding Assays Using Recombinant CHO Cell Membranes Expressing Human GlyT1:
Radioligand binding to human GlyT1c transporter-expressing membranes was determined as described in Mezler et al., Molecular Pharmacology 74:1705-1715, 2008.

Data set [2] deals with MDR1 (P-gp) (Homo sapiens (Human), UniProt P08183). The experiment in a line: Efflux ratio in MDR1-MDCK bidirectional transport. Format: in vitro ADME. To be noted: dog; MDR1-MDCK cell monolayers, 1 μM in HBSS-pH 7.4, 1 h incubation at 37 C. The procedure:
3. Determination of Efflux Ratio Using Madin-Darby Canine Kidney Type II Cells
Bidirectional transport experiments were performed on Madin-Darby Canine Kidney Type II cells over-expressing multidrug resistance protein 1 (MDR1-MDCK) to evaluate the compounds as potential P-gp substrates.
Compounds were added at 1 μM in HBSS-pH 7.4 (hanks balanced salt solution) to either the apical or basolateral side of MDR1-MDCK cell monolayers grown on Millicell 96-Cell polycarbonate filters. Samples were collected from both apical and basolateral sides at time 0 and after 1 h incubation at 37 C, compounds concentrations were measured by HPLC/MS/MS and permeability coefficients were then determined in both transport directions. The efflux ratio was subsequently calculated from the permeability coefficient.

human GlyT1c transporter, sequence (P48067 whole entry): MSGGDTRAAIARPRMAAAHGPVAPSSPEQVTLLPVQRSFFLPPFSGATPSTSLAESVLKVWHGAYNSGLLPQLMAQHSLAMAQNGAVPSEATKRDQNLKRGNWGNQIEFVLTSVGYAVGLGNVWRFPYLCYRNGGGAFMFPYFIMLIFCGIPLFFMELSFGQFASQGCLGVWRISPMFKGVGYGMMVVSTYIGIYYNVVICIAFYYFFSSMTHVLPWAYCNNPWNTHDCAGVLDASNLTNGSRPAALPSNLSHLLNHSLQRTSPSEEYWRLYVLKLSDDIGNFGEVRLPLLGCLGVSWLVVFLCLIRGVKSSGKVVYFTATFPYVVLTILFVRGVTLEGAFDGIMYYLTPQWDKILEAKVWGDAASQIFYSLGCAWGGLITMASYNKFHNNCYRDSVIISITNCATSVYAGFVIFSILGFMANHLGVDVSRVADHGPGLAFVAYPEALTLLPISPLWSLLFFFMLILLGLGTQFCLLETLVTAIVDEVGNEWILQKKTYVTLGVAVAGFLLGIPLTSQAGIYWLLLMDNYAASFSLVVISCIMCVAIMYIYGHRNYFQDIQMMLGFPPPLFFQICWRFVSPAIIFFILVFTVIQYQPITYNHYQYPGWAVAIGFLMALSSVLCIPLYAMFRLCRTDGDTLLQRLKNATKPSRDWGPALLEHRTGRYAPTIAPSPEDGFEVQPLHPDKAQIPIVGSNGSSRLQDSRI
MDR1 (P-gp), sequence (P08183 whole entry, species assumed): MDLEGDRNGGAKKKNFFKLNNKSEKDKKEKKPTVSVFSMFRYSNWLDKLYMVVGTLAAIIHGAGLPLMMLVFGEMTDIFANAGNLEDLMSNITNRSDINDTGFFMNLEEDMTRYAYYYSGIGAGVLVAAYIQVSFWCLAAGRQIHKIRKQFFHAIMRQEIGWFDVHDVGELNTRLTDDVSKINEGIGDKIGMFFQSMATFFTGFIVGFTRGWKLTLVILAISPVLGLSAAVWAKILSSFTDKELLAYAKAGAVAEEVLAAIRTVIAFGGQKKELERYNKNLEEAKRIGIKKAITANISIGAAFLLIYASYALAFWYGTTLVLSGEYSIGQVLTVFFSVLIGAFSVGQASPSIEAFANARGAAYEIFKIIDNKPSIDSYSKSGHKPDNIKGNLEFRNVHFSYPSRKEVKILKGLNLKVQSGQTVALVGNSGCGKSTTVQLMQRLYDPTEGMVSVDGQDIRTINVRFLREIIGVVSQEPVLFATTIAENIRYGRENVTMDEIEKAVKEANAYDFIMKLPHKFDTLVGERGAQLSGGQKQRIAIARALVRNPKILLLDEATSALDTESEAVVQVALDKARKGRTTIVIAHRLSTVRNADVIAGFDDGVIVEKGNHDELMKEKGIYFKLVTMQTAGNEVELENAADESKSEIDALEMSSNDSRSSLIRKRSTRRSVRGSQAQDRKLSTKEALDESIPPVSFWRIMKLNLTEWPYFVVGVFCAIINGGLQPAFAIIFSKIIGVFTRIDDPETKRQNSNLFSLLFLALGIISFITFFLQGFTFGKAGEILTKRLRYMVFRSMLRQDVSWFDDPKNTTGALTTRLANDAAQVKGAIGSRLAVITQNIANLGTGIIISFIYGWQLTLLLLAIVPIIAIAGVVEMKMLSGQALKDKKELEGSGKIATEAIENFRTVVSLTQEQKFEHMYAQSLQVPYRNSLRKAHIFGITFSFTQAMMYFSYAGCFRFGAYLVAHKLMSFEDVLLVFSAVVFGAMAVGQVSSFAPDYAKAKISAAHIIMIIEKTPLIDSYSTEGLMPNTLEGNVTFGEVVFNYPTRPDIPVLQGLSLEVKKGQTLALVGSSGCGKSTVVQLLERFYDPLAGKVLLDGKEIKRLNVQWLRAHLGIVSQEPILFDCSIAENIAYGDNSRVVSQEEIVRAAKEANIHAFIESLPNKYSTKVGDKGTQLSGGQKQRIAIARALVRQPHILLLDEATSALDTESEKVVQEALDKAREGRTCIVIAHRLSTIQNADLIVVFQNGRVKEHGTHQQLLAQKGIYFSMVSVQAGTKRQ

For the molecule `Cn1cnc(S(=O)(=O)NCc2ccc3c(c2)C(Cc2ccccc2)C(N2CC4CC4C2)CC3)c1.O=C(O)/C=C/C(=O)O` (stereo not drawn) [Example 1, cis-N-({7-[3-Azabicyclo[3.1.0]hex-3-yl]-8-benzyl-5,6,7,8-tetrahydronaphthalen-2-yl}methyl)-1-methyl-1H-imidazole-4-sulfonamide(2E)-but-2-enedioate], the pKi in data set [1] was above 8.00. Further, the efflux ratio at 1 h, 1 μM in data set [2] came to 3.2.
As for `Cn1cnc(S(=O)(=O)NCCOc2ccc3c(c2)C(Cc2ccccc2)C(N2CC4CC4C2)CC3)c1` (centres unmarked) [Example 2, N-[2-({7-[3-Azabicyclo[3.1.0]hex-3-yl]-8-benzyl-5,6,7,8-tetrahydronaphthalen-2-yl}oxy)ethyl]-1-methyl-1H-imidazole-4-sulfonamide(2E)-but-2-enedioate], the pKi in data set [1] is above 8.00.
For `Cn1cc(S(=O)(=O)NCCOc2ccc3c(c2)C(Cc2ccccc2)C(N2CC4CC4C2)CC3)cn1` (centres unmarked) [Example 3, N-[2-({7-[3-Azabicyclo[3.1.0]hex-3-yl]-8-benzyl-5,6,7,8-tetrahydronaphthalen-2-yl}oxy)ethyl]-1-methyl-1H-pyrazole-4-sulfonamide(2E)-but-2-enedioate], the pKi in data set [1] was above 8.00.
Take `Cn1cnc(S(=O)(=O)NCCOc2ccc3c(c2)C(Cc2ccccc2F)C(N2CC4CC4C2)CC3)c1` (centres unmarked) [Example 5, N-(2-{[7-[3-Azabicyclo[3.1.0]hex-3-yl]-8-(2-fluorobenzyl)-5,6,7,8-tetrahydronaphthalen-2-yl]oxy}ethyl)-1-methyl-1H-imidazole-4-sulfonamide]: the pKi in data set [1] was above 6.00.
Still for that read-out and setting: with `CCS(=O)(=O)NCc1ccc2c(c1)C(Cc1ccccc1)C(NC1(C#N)COC1)CC2` (centres unmarked) [Example 6, N-((8-Benzyl-7-(3-cyanooxetan-3-ylamino)-5,6,7,8-tetrahydronaphthalen-2-yl)methyl)ethanesulfonamide] the figure was above 6.00; with `CCCS(=O)(=O)NCc1ccc2c(c1)C(Cc1ccccc1)C(NC1(C#N)COC1)CC2` (centres unmarked) [Example 7, N-((8-Benzyl-7-(3-cyanooxetan-3-ylamino)-5,6,7,8-tetrahydronaphthalen-2-yl)methyl)propane-1-sulfonamide], above 6.00; with `N#CC1(NC2CCc3ccc(CNS(=O)(=O)C4CCC4)cc3C2Cc2ccccc2)COC1` (centres unmarked) [Example 8, N-((8-Benzyl-7-(3-cyanooxetan-3-ylamino)-5,6,7,8-tetrahydronaphthalen-2-yl)methyl)cyclobutanesulfonamide], above 6.00.
With `N#CC1(NC2CCc3ccc(CNS(=O)(=O)CC4CC4)cc3C2Cc2ccccc2)COC1` (centres unmarked) [Example 9, N-((8-Benzyl-7-(3-cyanooxetan-3-ylamino)-5,6,7,8-tetrahydronaphthalen-2-yl)methyl)-1-cyclopropylmethanesulfonamide], in data set [1], the pKi was above 7.00. In addition, in data set [2], the efflux ratio at 1 h, 1 μM is 3.5.
As to `Cn1cnc(S(=O)(=O)NCCOc2cc3c(cc2C#N)CCC(N2CC4CC4C2)C3Cc2ccccc2)c1` (centres unmarked) [Example 10, N-[2-({7-[3-Azabicyclo[3.1.0]hex-3-yl]-8-benzyl-3-cyano-5,6,7,8-tetrahydronaphthalen-2-yl}oxy)ethyl]-1-methyl-1H-imidazole-4-sulfonamide(2E)-but-2-enedioate], the pKi in data set [1] was above 6.00.
